Experimental data reported in ChEMBL document CHEMBL3608215, “Natural β-Dihydroagarofuran-Type Sesquiterpenoids as Cognition-Enhancing and Neuroprotective Agents from Medicinal Plants of the Genus Celastrus” (2015).
Active and inactive are the calls of the source. No cut-off for these calls is given here.

Tests used:
Mus musculus [1] = assay: Cognition-enhancing effect in ICR mouse assessed as reduction of scopolamine-induced escape latency and number of errors at 0.1 mg/kg, ig treated 1 hr before scopolamine challenge by passageway water maze test; format: functional, organism-based
SH-SY5Y = assay: Neuroprotective activity in human SH-SY5Y cells assessed as production against amyloid beta (25 to 35)-induced cell death by measuring cell viability at 1 uM after 24 hrs by MTT assay; format: functional
Mus musculus [2] = assay: Cognition-enhancing effect in ICR mouse assessed as reduction of scopolamine-induced escape latency and number of errors at 20 mg/kg, ig treated 1 hr before scopolamine challenge by passageway water maze test; format: functional, organism-based
Mus musculus [3] = assay: Cognition-enhancing effect in ICR mouse assessed as reduction of scopolamine-induced escape latency and number of errors at 10 to 40 mg/kg, ig treated 1 hr before scopolamine challenge by passageway water maze test; format: functional, organism-based
Mus musculus [4] = assay: Cognition-enhancing effect in ig dosed ICR mouse assessed as reduction of scopolamine-induced escape latency and number of errors treated 1 hr before scopolamine challenge by passageway water maze test; format: functional, organism-based

## C/C=C1\[C@H]2C=C(C)C[C@]1(N)c1ccc(=O)[nH]c1C2
Mus musculus [1]
  Activity: Active

## CC(=O)O[C@@H]1[C@H]2C[C@H](OC(=O)/C=C/c3ccccc3)[C@]3(C)[C@@H](OC(C)=O)[C@@H](OC(=O)c4ccccc4)C[C@@H](C)[C@@]13OC2(C)C
SH-SY5Y
  Activity: 79.6%

## CC(=O)O[C@H]1C[C@@H]2[C@@H](OC(C)=O)[C@]3(OC2(C)C)[C@H](C)CC[C@H](OC(=O)c2ccccc2)[C@@]13C
Mus musculus [2]
  Activity: Active
Mus musculus [1]
  Activity: Active

## CC(=O)O[C@H]1[C@@H](OC(=O)/C=C/c2ccccc2)C[C@@H](C)[C@@]23C[C@@H](C[C@H](OC(=O)/C=C/c4ccccc4)[C@]12C)C(C)(C)O3
SH-SY5Y
  Activity: 76.3%

## CC(=O)O[C@@H]1[C@@H]2[C@@H](OC(C)=O)[C@]3(OC2(C)C)[C@H](C)CC[C@H](OC(C)=O)[C@@]3(C)[C@H]1OC(=O)c1ccccc1
Mus musculus [3]
  Activity: inactive

## CC(=O)O[C@H]1C[C@@H]2[C@@H](OC(=O)c3ccccc3)[C@]3(OC2(C)C)[C@H](C)CC[C@H](OC(=O)c2ccccc2)[C@@]13C
Mus musculus [2]
  Activity: Active
Mus musculus [1]
  Activity: Active

## CC(=O)OC[C@@]12[C@@H](OC(C)=O)CC[C@@H](C)[C@]13OC(C)(C)[C@H](C[C@@H]2OC(=O)c1ccccc1)[C@H]3OC(C)=O
Mus musculus [2]
  Activity: Active
Mus musculus [1]
  Activity: Active

## CC(=O)O[C@H]1CC[C@@H](C)[C@@]23C[C@@H](C[C@H](OC(=O)/C=C/c4ccccc4)[C@]12C)C(C)(C)O3
Mus musculus [4]
  Activity: Dose-dependent effect
Mus musculus [1]
  Activity: Active
